Reference: PubChem BioAssay (NCI)
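Growth conditions: 96-well plates. Treatment: test compound, 48 hours, 5 concentrations. Analysis: linear interpolation between bracketing concentrations; unreached endpoints set to highest concentration. TGI marks complete inhibition of growth.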 Where a SMILES comes first, the peptide text is derived from it. The star is where a group is joined. Boc = CC(C)(C)OC(=O)*

Key:
Test in all cases: growth of human tumour cells (NCI), 48 h
[1] = tested on: NCI/ADR-RES ovarian
[2] = tested on: NCI-H522 lung
[3] = tested on: T-47D breast
[4] = tested on: MCF7 breast
[5] = tested on: ACHN renal
[6] = tested on: SK-MEL-2 melanoma
[7] = tested on: MDA-N
[8] = tested on: PC-3 prostate

SMILES | TGI [1] | TGI [2] | TGI [3] | TGI [4] | TGI [5] | TGI [6] | TGI [7] | TGI [8]
CN(C)CCOc1ccc(-c2c(Oc3ccc(Cl)cc3)c(=O)oc3ccccc23)cc1 | > 52.1 µM | 20.9 µM | > 100 µM | > 28.3 µM | > 48.5 µM | 22.6 µM | 13.5 µM | 30.1 µM
O=C1CC(O)c2c(Cl)sc(Cl)c21 (stereo not given) | 59.2 µM |  | > 24.2 µM | 30.5 µM | 26.2 µM | 31.2 µM | 44.2 µM | 28.5 µM
O=C(CSC1=NCCN1)c1ccccc1 | > 100 µM | > 100 µM | > 100 µM | > 100 µM | > 100 µM | > 100 µM | > 100 µM | > 100 µM
CC(=O)C(=C(I)I)c1ccccc1 | 49 µM | 31 µM | 50.4 µM | 46.8 µM | 35.2 µM | 53.6 µM | 39.9 µM | 83.8 µM
Nc1cc(CO)cc(Nc2c3ccccc3nc3occc23)c1 | 62.6 µM | 39.9 µM | 80.3 µM | 66 µM | > 100 µM | 73.9 µM | > 100 µM | > 100 µM
COc1cc2c(cc1OCCCC(=O)Nc1cc(C(=O)Nc3cc(C(=O)NCCCN(C)C)n(C)n3)n(C)n1)N=CC1CCCN1C2=O (stereo not given) | 57.3 µM | 20.2 µM | 53 µM | 29.5 µM | 29.7 µM | 31.2 µM | 31.6 µM | 99.3 µM
COc1ccc2nc3c([N+](=O)[O-])ccc4c3c(c2c1)NCCN4C | 7.73 µM | 3.31 µM | 7.73 µM | 8.75 µM | 5.92 µM |  | 2.21 µM | 4.54 µM
CN(C)Cc1cc(C(=O)O)cc(CN(C)C)c1O | > 100 µM | > 100 µM | > 100 µM | > 100 µM | > 100 µM | > 100 µM | > 100 µM | > 100 µM
Cc1nnc2c3c(-c4ccccc4)c(-c4ccccc4)oc3nc(N(C)C)n12 | > 100 µM | > 100 µM | > 100 µM | > 100 µM | > 100 µM |  |  | 
COc1nc2c(c(=O)n1C)N[C@@H]1[C@@H](O)[C@H](O)CO[C@@H]1N2 | > 100 µM | > 100 µM | > 100 µM | > 100 µM |  | > 100 µM | > 100 µM | > 100 µM
CC(NC(=O)C(NC(=O)OC(C)(C)C)C(C)C)C(=O)NCC(=O)O (stereo not drawn) (Boc-Val-Ala-Gly-OH; configuration not given here) | > 100 µM | > 100 µM | > 100 µM |  | > 100 µM | > 100 µM | > 100 µM | > 100 µM
COC(=O)C(Cc1ccccc1)NC(=O)CNC(=O)CSc1nnc(COc2ccc(Cl)cc2)n1-c1ccccc1 (stereo not given) | 42 µM | 5.45 µM | 51.4 µM | 35.5 µM | 27.2 µM | 33.8 µM |  | 31.3 µM
CCCCNC(=S)Nc1nc(C(=O)NNS(=O)(=O)c2ccccc2)cs1 | > 100 µM | > 100 µM | > 100 µM | > 100 µM | 85.5 µM | 43.8 µM |  | 93.1 µM
O=[N+]([O-])C(=C(NCc1ccccc1)NCc1ccccc1)C(Cl)=C(Cl)Cl | > 100 µM | 79.1 µM | 92.9 µM | > 100 µM | 55.9 µM |  | 74.7 µM | > 100 µM
COc1ccc(CNc2nc3ccccc3nc2-c2cccs2)cc1 | > 100 µM | > 100 µM | > 100 µM | > 100 µM | > 100 µM |  |  | 
N#CC(c1ccccc1)c1cccc2ccccc12 (stereo not given) | > 100 µM | 53.9 µM | > 100 µM | 92.4 µM | > 100 µM | 56.2 µM |  | 71.6 µM
CN(C)Cc1cc(N=Nc2ccc(Cl)c(Cl)c2)ccc1O | 23.5 µM | 16.2 µM | 23.2 µM | 18.1 µM | 16.2 µM |  | 23.5 µM | 23.8 µM
O=C(CCCC(=O)N1CC(CCl)c2ccc([N+](=O)[O-])cc21)N1CC(CCl)c2ccc([N+](=O)[O-])cc21 (stereo not given) |  | > 100 µM | > 100 µM | > 100 µM | > 100 µM | > 100 µM | > 100 µM | > 100 µM
CC(Nc1cc(Cl)cc(Cl)c1)c1ccncc1 (stereo not given) | 63.7 µM | 32.6 µM | > 100 µM | 34.3 µM | 67.6 µM |  | 45.6 µM | 36.7 µM
CC(C)n1c(=O)c2nn3c(=O)n(C(C)C)c(=O)c3nn2c1=O | > 100 µM |  | > 100 µM | > 100 µM | > 100 µM | > 100 µM | > 100 µM | > 100 µM
COc1cccc(-c2cc(=O)c3cc(C)cnc3[nH]2)c1 | > 100 µM |  | > 100 µM | > 100 µM | > 100 µM | 7.45 µM | 0.0213 µM | > 100 µM
O=C(CSc1nc2ccc(I)cc2c(=O)n1Cc1ccccc1)Nc1ccc(Br)cc1 | > 100 µM | > 100 µM | > 100 µM | > 100 µM | > 100 µM | > 100 µM |  | 58.6 µM
NC(=O)c1ccccc1NC(=O)C(=O)C(c1cnc2ccc([N+](=O)[O-])cc2n1)[N+](=O)[O-] (stereo not given) | > 100 µM | > 100 µM | > 100 µM | > 100 µM | > 100 µM | > 100 µM |  | > 100 µM
C=C1CCCCCCCCCCC1S(=O)c1ccccc1 (stereo not given) | > 100 µM |  | > 100 µM | 65.5 µM | > 100 µM | > 100 µM | > 100 µM | > 100 µM
CC(=O)O[C@H]1/C(=C/c2ccc(N(C)C)cc2)C[C@H]2[C@@H]3CC=C4C[C@@H](N5CCCC5)CC[C@]4(C)[C@H]3CC[C@]12C | > 100 µM |  | > 100 µM | > 100 µM | > 100 µM | > 100 µM |  | > 100 µM
CCN(CC)CCNc1ccc(N=Nc2ccc(S(N)(=O)=O)cc2)c2ccccc12 | > 100 µM | 32 µM | 8.27 µM | 47 µM | 38.8 µM | 28.2 µM |  | 29.7 µM
CCN(CC)C(=O)CCCCCCCCC1CO1 (stereo not given) | > 100 µM | > 100 µM |  | > 100 µM | > 100 µM | > 100 µM | > 100 µM | > 100 µM
